Experiments:
[1] = biological target: T1, long form of human GPR120 (Homo sapiens, UniProt Q5NUL3); experiment: Human GPR120 DiscoveRx PathHunter beta-arrestin assay, Procedure β-arrestin A; format: cell-based; details: PathHunter CHO-K1 GPR120 β-Arrestin cells, 3000 cells per well; read-out: hGPR120 β-arrestin A EC50
T1 construct: host or cells: PathHunter CHO-K1 GPR120 β-Arrestin Cell Line
T1 sequence (Q5NUL3 1-377 isoform Q5NUL3-1): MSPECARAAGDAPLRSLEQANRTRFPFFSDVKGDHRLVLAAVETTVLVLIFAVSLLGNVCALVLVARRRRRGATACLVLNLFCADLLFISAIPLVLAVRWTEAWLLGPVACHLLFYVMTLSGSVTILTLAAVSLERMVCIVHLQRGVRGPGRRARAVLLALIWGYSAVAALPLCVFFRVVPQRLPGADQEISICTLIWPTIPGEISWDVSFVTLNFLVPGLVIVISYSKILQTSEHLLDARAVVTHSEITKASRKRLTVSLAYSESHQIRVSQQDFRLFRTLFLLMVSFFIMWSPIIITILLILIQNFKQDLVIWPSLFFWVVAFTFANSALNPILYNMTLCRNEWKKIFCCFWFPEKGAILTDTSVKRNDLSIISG
Source text: The binding of an agonist (medium/long chain fatty acids or small molecule agonists) to the G-protein-coupled receptor GPR120 activates phospholipase C, leading to release of intracellular Ca^+2 through the generation of inositol 1,4,5-trisphosphate (InsP3 or IP3). GPR120 activation can also trigger intracellular signaling via recruitment of Beta-Arrestin. In the present method, agonist-induced activation of the human GPR120 receptor is monitored through the use of PathHunter CHO-K1 GPR120 Beta-Arrestin Cell Line engineered by DiscoveRx, as detailed below. The cell lines are designed to co-express both the ProLink/Enzyme Donor (PK)-tagged GPCR and the Enzyme […] (EA)-tagged Beta-Arrestin fusion proteins. Upon GPR120 receptor stimulation/activation, the EA-tagged Beta-Arrestin portion is translocated to the tagged receptor, where the two enzyme fragments are brought within close proximity. Under these conditions, these fragments can interact and form an active Beta-gal enzyme complex through Enzyme Fragment Complementation (EFC). […] This in vitro assay therefore serves to assess compound agonist activity of the GPR120.
In Procedure β-arrestin A, the cell used were PathHunter CHO-K1 GPR120 β-Arrestin Cell Line, expressing the long form of human GPR120 (Genbank accession number NM_181745), with 3000 cells per well.
The selected CHO-K1 GPR120 β-Arrestin cells were cultured in Ham's F12 media supplemented with 10% fetal bovine serum (FBS), 1% Glutamine, 1×p/s, 800 μg/mL G418 and 300 μg/mL Hygromycin B (for selection). Cell stocks were maintained and grown in a sub-confluent state using standard cell culture procedures. The day before the experiment, the cells were harvested with non-enzymatic cell dissociation buffer and re-suspended in complete growth media at the desired concentration. […] The seeded plates were incubated overnight at 37° C.
On the day of the experiment, the Assay Buffer containing (a) HBSS with Ca^++ and Mg^++, (b) 20 mM HEPES, and (c) 0.1% BSA stabilizer (pH 7.4) was prepared. The growth medium was gently removed from the cell plates and 20 μL of Assay Buffer added to each well. The plate was then incubated at 37° C. for 60 min. […] Five μL of compound dilution was then added to each well and the plate incubated at 37° C. for 90 min. The detection reagents were prepared according to the manufacture's instruction. Twelve μL of the detection reagents were added to each well and the plate incubated at room temperature for 60 min.
The % activity relative to the positive control was calculated using the following equation:
The Fitting Equation was: Y=Bottom+(Top-Bottom)/(1+10^((Log EC50−X)*HillSlope)), where X is the log of the concentration and Y is the response.

[2] = biological target: T2, Human GPR120 short form (Homo sapiens, UniProt Q5NUL3); experiment: Human GPR120 calcium flux assay, Procedure Calcium A; format: cell-based; details: HEK-293 cells, FLIPR, 2500 cells/well; read-out: GPR120 Ca2+ Assay A EC50
T2 construct: expressed in transfected cells
T2 sequence (Q5NUL3 1-361): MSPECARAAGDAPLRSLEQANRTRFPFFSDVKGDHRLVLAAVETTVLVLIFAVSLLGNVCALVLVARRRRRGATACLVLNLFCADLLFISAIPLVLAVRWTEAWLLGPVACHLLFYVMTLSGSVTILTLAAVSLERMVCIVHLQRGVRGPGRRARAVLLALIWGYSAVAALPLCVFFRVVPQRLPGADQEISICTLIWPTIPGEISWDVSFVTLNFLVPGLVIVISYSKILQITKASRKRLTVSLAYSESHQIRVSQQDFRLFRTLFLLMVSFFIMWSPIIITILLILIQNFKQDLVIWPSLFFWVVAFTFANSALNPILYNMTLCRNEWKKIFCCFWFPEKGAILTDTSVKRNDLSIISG
Procedure: These cells are first loaded with the Ca^+2 sensitive dye, Fluo-4 NR. Upon stimulation, intracellular released Ca^+2 can bind to the dye and alter its fluorescence intensity. This increase in fluorescence signal, and thus the flux in intracellular [Ca^2+], is detected and quantitated by fluorescence imaging using a FLIPR reader. The effect of the agonist is measured as a function of concentration and used to calculate an EC50 based upon a response curve.
In this procedure 2500 cells/well were employed.
A Human GPR120 clone (Genbank accession number NM_001195755.1) was placed into the pcDNA3.1 mammalian expression vector carrying the neomycin resistance gene. A stable mammalian cell was generated by placing the above clone into a HEK293 background. […] Cells were split 2 times a week to keep the cells in the log-phase growth.
In preparation for the assay, HEK cells stably transfected with Human GPR120 (2.5K cells per well in 25 uL growth medium) were seeded into 384-well plates and then incubated overnight (37° C., 5% CO2). The next day, the media was changed to 20 μL assay buffer and the cell starved for 1 h at 37° C. The dye loading solution (2× dye) was prepared using 10 mL assay buffer, 100 μL of 250 mM probenecid, 1 bottle of Component A, and 20 μl of dye in DMSO. Twenty μL of the 2× dye loading buffer was then added to each well. The plates were incubated at 37° C. for 30 min, then at room temperature for an additional 15 minutes, before performing the assay on FLIPR.
The assay was performed on a FLIPR plate reader using the following parameters. Baseline was read for 10 seconds at 1 sec intervals. The program was set to transfer 10 μL of ligand from compound plate to cell plate after baseline reading. Aspiration was executed at: 10 μL/sec speed, 4.6 μL height; Dispensing was executed at: 30 μL/sec speed, 45 μL height. After compound addition, each well was read for 300 sec, with measurements collected at 1 sec intervals.
The kinetic data from the FLIPR was based upon a 5 minute window for data collection. The fluorescence of each sample well was used for individual calculations of a normalized RFU value, which was defined as maximum response minus the minimum response. […] The Fitting Equation was: Y=Bottom+(Top-Bottom)/(1+10^((Log EC50−X)*HillSlope)), where X is the log of the concentration and Y is the response.

[3] = test system: C57B16 mice on a high fat diet; experiment: GPR120 DIO mice OGTT screening; format: in vivo, mouse; details: dosed 30 min prior to glucose PO
Procedure: 18-22 week old, C57B16 mice on a high fat diet (60% HFD) for 12-16 weeks (ave. body weight ˜37-41 g) were fasted for 6 hr, with removal of food occurring at 7 am on the morning of the study. The animals were sorted into treatment groups the day before the study by body weight. Animals outside the bounds of ˜30-50 g were left out of the study. The animals had been handled and shammed a total of 5-8 days (1-3 days immediately prior to the study). Glucose (in 1 mL syringes) was drawn up the morning of the study. Test compounds were kept spinning and were only drawn into 1 ml syringes prior to study commencement. Animals were bled via tail snip to determine basal glucose levels prior to dosing of treatments. An Ascensia BREEZE Blood Glucose Monitoring System by Bayer was used for determining glucose levels.
Animals were moved into the testing room at ˜9-11 am, to yield them time to acclimate. The bleeds and dosing started at approximately 1 pm in 30-second intervals per animal. All groups were dosed 30 minutes prior to glucose administration at a dose volume of 10 ml/kg (the dose volume was calculated separately for each individual animal). Test compounds were administered at one or more of the following dosages: 0.1 mg/kg, 0.3 mg/kg, 1 mg/kg, 3 mg/kg and 10 mg/kg.
Thirty minutes after the first dose (with test compound) animals were bled again for a second baseline, or T=0, and immediately dosed with glucose (20% solution; TEKNOVA, 250 ml sterile bottle w/ catalogue number G0525) via a PO injection. The exact dose volume for glucose was also calculated separately for each individual animal.
Blood glucose was measured at 15, 30, 45, 60, and 90 minutes post-glucose administration via the snipped tail. If an animal reached a value of “HI”, the upper limit of the glucometer (600 mg/dl) was substituted as the blood glucose value and the study was analyzed as normal with no exclusions. If 50% or more of any treatment group reaches a “HI” value at least once, the study was considered invalid and repeated. Glucose values were typed into an EXCEL spreadsheet where they were used to calculate glucose AUC and delta AUC post-compound and post-glucose. The glucose excursion curves and the different versions of the AUC's were graphed in GraphPad Prism 5.
Note: All statistics completed in this study were completed using the statistical software package GraphPad Prism 5. Standard procedures for analyzing data sets from screening GPR120 compounds in DIO mouse OGTT's were as listed here below. In addition to the statistics that were run using GraphPad Prism 5, Microsoft Excel was used to calculate the percent changes in AUC from vehicle groups as detailed below.
Change from −30 to 0 BSLN Glucose, Raw Glucose AUC −30 to 90 min, Delta Glucose AUC −30 to 90 min, Raw Glucose AUC 0 to 90 min, Delta Glucose AUC 0 to 90 min were analyzed using Column Statistics Analysis, with mean values used to calculate % change from the vehicle mean group, as well as mean, SEM and/or % change from vehicle, where appropriate; and using One-Way ANOVA w/ a Tukey Post-Test (Comparing All Pairs of Columns) with each treatment group examined to see if it was statistically significant compared to vehicle (*=P<0.05, **=P<0.01, ***=P<0.001).

| EC50 [1] [nM] | EC50 [2] [nM] | Compound | DIO Lowering Glucose AUC (−30 to 90) @ 10 mg/kg [3] |
| --- | --- | --- | --- |
| 209 | 101 | CCc1ccc(-c2cc(F)sc2COc2c(F)cc(CCC(=O)O)cc2F)cc1 [Cpd 7] | – |
| – | – | Cc1ccc(-c2nsc(C(F)(F)F)c2COc2c(F)cc(CCC(=O)O)cc2F)c(F)c1 [Cpd 65, 3-(3,5-difluoro-4-[[3-(2-fluoro-4-methylphenyl)-5-(trifluoromethyl)-1,2-thiazol-4-yl]methoxy]phenyl)propanoic acid] | −0.61 |
| – | – | O=C(O)CCc1cc(F)c(OCc2c(-c3ccc(Cl)c(F)c3)nsc2C(F)(F)F)c(F)c1 [Cpd 67, 3-(4-((3-(4-chloro-3-fluorophenyl)-5-(trifluoromethyl)isothiazol-4-yl)methoxy)-3,5-difluorophenyl)propanoic acid] | −0.78 |
| – | – | CCc1ccc(-c2nsc(C(F)(F)F)c2COc2ccc(CCC(=O)O)c(F)c2F)cc1 [Cpd 73, 3-(4-((3-(4-ethylphenyl)-5-(trifluoromethyl)isothiazol-4-yl)methoxy)-2,3-difluorophenyl)propanoic acid] | −0.51 |
| – | – | O=C(O)CCc1cc(F)c(OCc2c(-c3ccc(Cl)cc3F)nsc2C(F)(F)F)c(F)c1 [Cpd 74, 3-(4-((3-(4-chloro-2-fluorophenyl)-5-(trifluoromethyl)isothiazol-4-yl)methoxy)-3,5-difluorophenyl)propanoic acid] | −0.71 |
| – | – | Cc1ccc(-c2nsc(C(F)(F)F)c2COc2c(F)cc(CC(C)C(=O)O)cc2F)c(F)c1 (centres unmarked) [Cpd 76, 3-(3,5-difluoro-4-[[3-(2-fluoro-4-methylphenyl)-5-(trifluoromethyl)-1,2-thiazol-4-yl]methoxy]phenyl)-2-methylpropanoic acid] | −0.8 |
| 116 | 200 | O=C(O)CCc1cc(F)c(OCc2c(-c3ccc(C4CC4)cc3)nsc2C(F)(F)F)c(F)c1 [Cpd 160, 3-(4-{[3-(4-Cyclopropylphenyl)-5-(trifluoromethyl)isothiazol-4-yl]methoxy}-3,5-difluorophenyl)propanoic acid] | – |
| 210 | 690 | CCc1ccc(-c2nsc(C(F)(F)F)c2COc2c(F)cc([C@@H]3C[C@H]3CO)cc2F)cc1 [Cpd 219, [(1R,2R)-2-(4-{[3-(4-Ethylphenyl)-5-(trifluoromethyl)isothiazol-4-yl]methoxy}-3,5-difluorophenyl)cyclopropyl]methanol] | – |

Source: patent US10118922B2 (Janssen Pharmaceutica NV, priority 2013, dated 2018)
